In patent US20160096826A1, “CO-CRYSTALS OF LAPATINIB MONOACID SALTS” (priority 2014, published 2016):
Where a name gives a salt, the structure may show the parent alone. Read-outs that look alike come from different tables or passages of the source.

Tests used:
[1] = Model-based PK analysis (NONMEM), oral administration, two parallel input processes; conditions: for AUC0INF / Absolute Bioavail. / Cmax / MRTINF / Tmax: derived from PK modelling, oral
Source text: (§1) Therefore, the absorption process was described by two parallel inputs processes. The first input characterized a fast-release component (with a ka1 rate of absorption) while the second input characterized a delayed release of the drug (with a ka2 rate of absorption). The fraction of the oral dose associated with the first absorption component was estimated by the F parameter, while the remaining fraction of the drug (1-F) was assumed to be released in the second absorption process. The F fraction of the dose was immediately release (lag1) while the release of the remaining (1-F) fraction occurred with an estimated lag time (lag2).
(§2) The disposition and elimination PK parameters of Lapatinib (k12, k21, k13, k31, and kel) for the different oral formulations were fixed to the ones estimated in the IV model due to the limited PK samples available for a proper characterization of these parameters after oral administration.

in vivo [2] = conditions: male, Wistar, rat, male rats; for AUC(0-t): AUCt; for Cmax: suspension in hydroxypropylmethylcellulose:Tween 80 in WFI, plasma Lapatinib; for bioavailability: F (absolute bioavailability), oral 30 mg/kg AUCt compared with iv 10 mg/kg; for Vd/F: Vz/F; for MRT last: MRTt (mean residence time)
Procedure: (§3) For the oral administration, the compounds were suspended in hydroxypropylmethylcellulose:Tween 80 (0.5%:0.1%) in WFI to reach a concentration of 3 mg parent compound/mL in all cases.
(§4) A bioanalytical UPLC®-MS/MS method was characterized and allowed the determination of the Lapatinib in rat plasma; the precision and accuracy of the QC samples was appropriate according to international guidelines.
(§5) A non-compartmental pharmacokinetic analysis was carried out with mean plasma concentration-time curves using WinNonlin® Professional Version 6.3 (Phoenix Version 1.3, Pharsight Corporation):
(§6) For the preparation of the intravenous solution and the oral suspensions, the correction factor and the purity were applied for all compounds. Blood samples were collected from all animals at all scheduled time points.
(§7) The study samples were analyzed according to the following UPLC®-MS/MS method:

[3] = Stability at 74% RH at 40° C. (XRPD)
[4] = male rats; for Cmax: suspension in hydroxypropylmethylcellulose:Tween 80 in WFI, plasma Lapatinib
Procedure: as §3, §4, §5, §6, §7

[5] = Stability in water suspension followed by XRPD; type: physicochemical; conditions: 40 volumes of water, room temperature, XRPD at 1, 4 and 24 hours
Procedure: The three suspensions were stirred at room temperature in 40 volumes of water and the transformation of the product was followed by XRPD at 1 hour, 4 hours and 24 hours.

in vivo [6] = conditions: Wistar, rat, plasma, po, 30 mg/kg
Source text: as §1, §2

[7] = Model-based PK analysis (NONMEM), IV administration, three-compartment model; conditions: Group 1
[8] = Intravenous bolus pharmacokinetics, non-compartmental analysis, 10 mg Lapatinib/kg; type: in vivo; conditions: Wistar, rat, plasma, male rats
Procedure: as §5

in vivo [9] = conditions: Wistar, rat, plasma, iv, 10 mg/kg
[10] = Tyverb EPAR; cited from earlier work
[11] = coformer acid; cited from earlier work
[12] = cited from earlier work
[13] = pKa values for the FDA co-crystal criterion; type: physicochemical; conditions: approximated by comparison with Gefitinib and Erlotinib; read-out: pKa of the second less basic function
Source text: As further confirmation that the products of the present inventions are co-crystals and not simply salts, the criterion adopted by the FDA Guidelines of April 2013 (see below) is here reported: the active ingredient-excipient complex should be classified as co-crystal if ΔpKa of the two species is <1.

[14] = listed as co-crystal Lapatinib monotosylate:caproic acid (1:2)
[15] = plasma, po, 30 mg/kg, oral 30 mg/kg
[16] = listed as co-crystal Lapatinib monotosylate:caprylic acid (1:2)
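For Cmax/AUCt (apparent absorption rate) in this document: parent drug in plasma quantified by UPLC-MS/MS, parameters derived by non-compartmental analysis of mean concentration-time curves, oral suspension at 3 mg/mL.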
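For F (absolute bioavailability) in this document: parent drug in plasma quantified by UPLC-MS/MS, parameters derived by non-compartmental analysis of mean concentration-time curves, oral suspension at 3 mg/mL.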
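For F in this document: parent drug in plasma quantified by UPLC-MS/MS, parameters derived by non-compartmental analysis of mean concentration-time curves, oral suspension at 3 mg/mL.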
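For t1/2app (apparent terminal elimination half-life) in this document: parent drug in plasma quantified by UPLC-MS/MS, parameters derived by non-compartmental analysis of mean concentration-time curves, oral suspension at 3 mg/mL.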

CS(=O)(=O)CCNCc1ccc(-c2ccc3ncnc(Nc4ccc(OCc5cccc(F)c5)c(Cl)c4)c3c2)o1 [Form I, Lapatinib monotosylate:caproic acid (1:2)]
AUC0INF [1, 14]: 15000 ng·h/mL | Absolute Bioavail. [1, 14]: 35.5% | Cmax [1, 14]: 3018.6 ng/mL | MRTINF [1, 14]: 3.85 h | Tmax [1, 14]: 1.6 h | AUC(0-t) (in vivo [2]; [15]): 13300 ng·h/mL | CL/F (in vivo [2]; [15]): 33.2 mL/min/kg | Cmax (in vivo [2]; [15]): 3170 ng/mL | bioavailability (in vivo [2]; plasma, po, 30 mg/kg): 32.4% | Vd/F (in vivo [2]; [15]): 6.83 L/kg | Tmax (in vivo [2]; plasma, po, 30 mg/kg, tmax, oral 30 mg/kg): 2 h | exposure time after which very small amounts of Lapatinib monotosylate Form M1 were detected by XRPD [3]: 23 days | Lapatinib monotosylate observed in the co-crystal after 23 days [3]: a little amount

CS(=O)(=O)CCNCc1ccc(-c2ccc3ncnc(Nc4ccc(OCc5cccc(F)c5)c(Cl)c4)c3c2)o1 [Form II, Lapatinib monotosylate:caprylic acid (1:2)]
Cmax ([4]; oral 30 mg/kg, 30 mg/kg): 2814 ng/mL | AUCt ([4]; oral 30 mg/kg, 30 mg/kg): 20778 ng·h/mL | Tmax ([4]; oral 30 mg/kg, 30 mg/kg): 3 h | AUC0INF [1, 16]: 16700 ng·h/mL | Absolute Bioavail. [1, 16]: 39.5% | Cmax [1, 16]: 2813.5 ng/mL | MRTINF [1, 16]: 4.67 h | Tmax [1, 16]: 3 h | bioavailability (in vivo [2]; in vivo, 30 mg Lapatinib/kg): 50.7% | MRT last (in vivo [2]; in vivo, po, 30 mg/kg, oral 30 mg/kg): 4.67 h | exposure time after which very small amounts of Lapatinib monotosylate Form M1 were detected by XRPD [3]: 60 days | Lapatinib monotosylate observed in the co-crystal after 23 days [3]: only traces | stability in water suspension (XRPD finding) [5]: recovering pure Form II after 24 hours

CS(=O)(=O)CCNCc1ccc(-c2ccc3ncnc(Nc4ccc(OCc5cccc(F)c5)c(Cl)c4)c3c2)o1.Cc1ccc(S(=O)(=O)O)cc1 [Lapatinib ditosylate monohydrate, N-{3-chloro-4-[(3-fluorobenzyl)oxy]phenyl}-6-[5-({[2-(methylsulphonyl)ethyl]amino}methyl)furan-2-yl]quinazolin-4-amine bis(4-methylbenzenesulphonate)monohydrate, reference compound]
Cmax/AUCt (apparent absorption rate) ([4]; oral 30 mg/kg): 0.149 h⁻¹ | AUC (in vivo [6]): 18400 ng·h/mL | Cmax (in vivo [6]): 3510 ng/mL | MRT inf (in vivo [6]): 4.31 h | Tmax (in vivo [6]): 2 h | AUC0INF [1]: 18400 ng·h/mL | Absolute Bioavail. [1]: 43.5% | lag1 ([1]; oral model, first (immediate) release): 0 | k12 ([7]; IV model): 0.616 | k13 ([7]; IV model): 3.14 | k21 ([7]; IV model): 0.00202 | k31 ([7]; IV model): 1.47 | kel ([7]; IV model): 1.6 | v ([7]; IV model): 0.358 | AUC0INF ([7]; derived from PK modelling, IV): 14100 ng·h/mL | T12 ([7]; derived from PK modelling, IV): 176 h | C0 ([8]; iv bolus 10 mg/kg in DMSO:PEG:WFI (10:40:50), read-out: C0 (extrapolated concentration at time 0)): 20200 ng/mL | AUC(0-t) ([8]; iv bolus 10 mg/kg): 13700 ng·h/mL | MRT last ([8]; iv bolus 10 mg/kg): 1.54 h | bioavailability (in vivo [2]; plasma, oral, 30 mg Lapatinib/kg): 57.5% | AUC(0-t) (in vivo [2]; [15]): 23600 ng·h/mL | CL/F (in vivo [2]; [15]): 21.2 mL/min/kg | Cmax (in vivo [2]; [15]): 3520 ng/mL | MRT last (in vivo [2]; [15]): 4.28 h | Vd/F (in vivo [2]; [15]): 4.38 L/kg | half-life (in vivo [2]; plasma, po, 30 mg/kg, t1/2app (apparent terminal elimination half-life), oral 30 mg/kg): 2.39 h | AUC (in vivo [9]): 12300 ng·h/mL | MRT inf (in vivo [9]): 35.9 h | hygroscopicity [10]: non-hygroscopic | solubility in aqueous media [10]: practically insoluble in aqueous media

CCCCCC(=O)O [caproic acid]
pKa [11]: 4.8

CCCCCCCC(=O)O [caprylic acid]
pKa [11]: 4.91

CS(=O)(=O)CCNCc1ccc(-c2ccc3ncnc(Nc4ccc(OCc5cccc(F)c5)c(Cl)c4)c3c2)o1 [Form III, Lapatinib monohydrochloride:adipic acid (1:1)]
F (absolute bioavailability) ([4]; oral 30 mg/kg AUCt compared with iv 10 mg/kg): 44.98% | Cmax ([4]; oral 30 mg/kg, 30 mg/kg): 2567 ng/mL | AUCt ([4]; oral 30 mg/kg, 30 mg/kg): 18433 ng·h/mL | Tmax ([4]; oral 30 mg/kg, 30 mg/kg): 3 h | t1/2app (apparent terminal elimination half-life) ([4]; oral 30 mg/kg, 30 mg/kg): 3.13 h

CS(=O)(=O)CCNCc1ccc(-c2ccc3ncnc(Nc4ccc(OCc5cccc(F)c5)c(Cl)c4)c3c2)o1 [Lapatinib]
increase of bioavailability when co-administered with a high fat meal ([12]; compared with fasting conditions, Ratain and Cohen): 325% | drug class (solubility/permeability) ([12]; low solubility-good permeability, Custodio et al.): Class II | pKa [13]: ~5.4
